Assay results taken from PubChem BioAssay (NCI).
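Grown in 96-well plates, cells were treated for 48 hours with each compound at five concentrations. Insufficient inhibition: endpoint recorded as highest concentration tested. Definition used: TGI = concentration required for complete inhibition of growth.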

Experiments:
Assay in all cases: NCI-60 cell line screen, 48 h
HCT-116 colon = test system: HCT-116 colon
SNB-19 CNS = test system: SNB-19 CNS
HCT-15 colon = test system: HCT-15 colon
SK-MEL-2 melanoma = test system: SK-MEL-2 melanoma
MCF7 breast = test system: MCF7 breast
SK-MEL-28 melanoma = test system: SK-MEL-28 melanoma
DU-145 prostate = test system: DU-145 prostate
OVCAR-4 ovarian = test system: OVCAR-4 ovarian
HOP-92 NSCLC = test system: HOP-92 NSCLC
A549 NSCLC = test system: A549 NSCLC
A498 renal = test system: A498 renal
OVCAR-3 ovarian = test system: OVCAR-3 ovarian
RXF 393 renal = test system: RXF 393 renal
NCI-H226 lung = test system: NCI-H226 lung
U251 CNS = test system: U251 CNS
OVCAR-5 ovarian = test system: OVCAR-5 ovarian
HOP-62 NSCLC = test system: HOP-62 NSCLC
CAKI-1 renal = test system: CAKI-1 renal
SK-OV-3 ovarian = test system: SK-OV-3 ovarian
OVCAR-8 ovarian = test system: OVCAR-8 ovarian
SK-MEL-5 melanoma = test system: SK-MEL-5 melanoma
COLO 205 colon = test system: COLO 205 colon
SF-268 CNS = test system: SF-268 CNS
HT29 colon = test system: HT29 colon
PC-3 prostate = test system: PC-3 prostate
SR leukemia = test system: SR leukemia
ACHN renal = test system: ACHN renal
KM12 colon = test system: KM12 colon
RPMI-8226 leukemia = test system: RPMI-8226 leukemia
UACC-62 melanoma = test system: UACC-62 melanoma
SNB-75 CNS = test system: SNB-75 CNS
MDA-N = test system: MDA-N
NCI-H522 lung = test system: NCI-H522 lung
786-0 renal = test system: 786-0 renal
BT-549 breast = test system: BT-549 breast
MDA-MB-435 = test system: MDA-MB-435
NCI/ADR-RES ovarian = test system: NCI/ADR-RES ovarian
CCRF-CEM leukemia = test system: CCRF-CEM leukemia
IGROV1 ovarian = test system: IGROV1 ovarian
MDA-MB-231 breast = test system: MDA-MB-231 breast
HS 578T breast = test system: HS 578T breast
SN12C renal = test system: SN12C renal
EKVX NSCLC = test system: EKVX NSCLC
SW-620 colon = test system: SW-620 colon
SF-295 CNS = test system: SF-295 CNS
UO-31 renal = test system: UO-31 renal
MOLT-4 leukemia = test system: MOLT-4 leukemia
LOX IMVI melanoma = test system: LOX IMVI melanoma
M14 melanoma = test system: M14 melanoma
MALME-3M melanoma = test system: MALME-3M melanoma
NCI-H460 lung = test system: NCI-H460 lung
T-47D breast = test system: T-47D breast
NCI-H23 lung = test system: NCI-H23 lung
TK-10 renal = test system: TK-10 renal
K-562 leukemia = test system: K-562 leukemia
SF-539 CNS = test system: SF-539 CNS
HCC-2998 colon = test system: HCC-2998 colon
UACC-257 melanoma = test system: UACC-257 melanoma

COC(=O)Cc1c(-c2[nH]c3ccccc3c2CC(=O)OC)[nH]c2ccccc12
TGI (HCT-116 colon): > 100 µM | TGI (SNB-19 CNS): > 100 µM | TGI (HCT-15 colon): > 100 µM | TGI (SK-MEL-2 melanoma): > 100 µM | TGI (MCF7 breast): > 100 µM | TGI (SK-MEL-28 melanoma): > 100 µM | TGI (DU-145 prostate): > 100 µM | TGI (OVCAR-4 ovarian): > 100 µM | TGI (HOP-92 NSCLC): > 100 µM | TGI (A549 NSCLC): > 100 µM | TGI (A498 renal): > 100 µM | TGI (OVCAR-3 ovarian): > 41.2 µM | TGI (RXF 393 renal): > 100 µM | TGI (NCI-H226 lung): > 100 µM | TGI (U251 CNS): > 100 µM | TGI (OVCAR-5 ovarian): > 100 µM | TGI (HOP-62 NSCLC): > 100 µM | TGI (CAKI-1 renal): > 100 µM | TGI (SK-OV-3 ovarian): > 100 µM | TGI (OVCAR-8 ovarian): > 100 µM | TGI (SK-MEL-5 melanoma): > 100 µM | TGI (COLO 205 colon): > 100 µM | TGI (SF-268 CNS): > 100 µM | TGI (HT29 colon): > 100 µM | TGI (PC-3 prostate): > 100 µM | TGI (SR leukemia): > 100 µM | TGI (ACHN renal): > 100 µM | TGI (KM12 colon): > 100 µM | TGI (RPMI-8226 leukemia): > 100 µM | TGI (UACC-62 melanoma): > 100 µM | TGI (SNB-75 CNS): > 100 µM | TGI (MDA-N): > 100 µM | TGI (NCI-H522 lung): > 100 µM | TGI (786-0 renal): > 100 µM | TGI (BT-549 breast): > 100 µM | TGI (MDA-MB-435): > 100 µM | TGI (NCI/ADR-RES ovarian): > 100 µM | TGI (CCRF-CEM leukemia): > 100 µM | TGI (IGROV1 ovarian): > 100 µM | TGI (MDA-MB-231 breast): > 100 µM | TGI (HS 578T breast): > 100 µM | TGI (SN12C renal): > 100 µM | TGI (EKVX NSCLC): > 100 µM | TGI (SW-620 colon): > 100 µM | TGI (SF-295 CNS): > 100 µM | TGI (UO-31 renal): > 100 µM | TGI (MOLT-4 leukemia): > 100 µM | TGI (LOX IMVI melanoma): > 100 µM | TGI (M14 melanoma): > 100 µM | TGI (MALME-3M melanoma): > 100 µM | TGI (NCI-H460 lung): > 100 µM | TGI (T-47D breast): > 100 µM | TGI (NCI-H23 lung): > 100 µM | TGI (TK-10 renal): > 100 µM | TGI (K-562 leukemia): > 100 µM | TGI (SF-539 CNS): > 100 µM | TGI (HCC-2998 colon): > 100 µM | TGI (UACC-257 melanoma): > 100 µM

CC12c3c4cccc3Oc3cc(N)cc(c31)Oc1cc(N)cc(c12)O4
TGI (HCT-116 colon): 9.44 µM | TGI (SNB-19 CNS): 38.5 µM | TGI (HCT-15 colon): > 36.7 µM | TGI (SK-MEL-2 melanoma): 26.5 µM | TGI (MCF7 breast): > 40.6 µM | TGI (SK-MEL-28 melanoma): 27.6 µM | TGI (DU-145 prostate): 22.6 µM | TGI (OVCAR-4 ovarian): 23.9 µM | TGI (HOP-92 NSCLC): 74.5 µM | TGI (A549 NSCLC): > 40.7 µM | TGI (A498 renal): 34 µM | TGI (OVCAR-3 ovarian): 7.04 µM | TGI (RXF 393 renal): 2.67 µM | TGI (NCI-H226 lung): 13.6 µM | TGI (U251 CNS): > 100 µM | TGI (OVCAR-5 ovarian): 16.1 µM | TGI (HOP-62 NSCLC): 18.2 µM | TGI (CAKI-1 renal): 24.9 µM | TGI (SK-OV-3 ovarian): 14.8 µM | TGI (OVCAR-8 ovarian): 32 µM | TGI (SK-MEL-5 melanoma): 13 µM | TGI (COLO 205 colon): 12.1 µM | TGI (SF-268 CNS): 10.5 µM | TGI (HT29 colon): 40.3 µM | TGI (PC-3 prostate): 12.1 µM | TGI (SR leukemia): 22.6 µM | TGI (ACHN renal): 23.1 µM | TGI (KM12 colon): > 39.7 µM | TGI (RPMI-8226 leukemia): > 38.1 µM | TGI (UACC-62 melanoma): 18.5 µM | TGI (SNB-75 CNS): 14.7 µM | TGI (MDA-N): 3.59 µM | TGI (NCI-H522 lung): 4.74 µM | TGI (786-0 renal): 8.72 µM | TGI (BT-549 breast): 13 µM | TGI (MDA-MB-435): 4.4 µM | TGI (NCI/ADR-RES ovarian): > 26.3 µM | TGI (CCRF-CEM leukemia): 3.74 µM | TGI (IGROV1 ovarian): 13.6 µM | TGI (MDA-MB-231 breast): 27.4 µM | TGI (HS 578T breast): 28.1 µM | TGI (SN12C renal): 28.6 µM | TGI (EKVX NSCLC): 9.52 µM | TGI (SW-620 colon): 22.6 µM | TGI (SF-295 CNS): 9.2 µM | TGI (UO-31 renal): > 50.6 µM | TGI (MOLT-4 leukemia): 40.2 µM | TGI (LOX IMVI melanoma): > 41.9 µM | TGI (M14 melanoma): 19.6 µM | TGI (MALME-3M melanoma): 10.8 µM | TGI (NCI-H460 lung): > 37.6 µM | TGI (T-47D breast): > 48.5 µM | TGI (NCI-H23 lung): > 46 µM | TGI (TK-10 renal): 25.3 µM | TGI (K-562 leukemia): > 51.5 µM | TGI (SF-539 CNS): 11.8 µM | TGI (HCC-2998 colon): > 39 µM | TGI (UACC-257 melanoma): 18.3 µM
